Results: PubChem BioAssay (NCI)
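Test compounds were applied to cells in 96-well plates for 48 hours at 5 doses. GI50: concentration for 50% inhibition of growth. The concentration for full growth arrest is given as TGI.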

Assays:
Assay in all cases: NCI tumour cell line growth inhibition, 48 h
[1] = test system: EKVX NSCLC
[2] = test system: IGROV1 ovarian
[3] = test system: M14 melanoma
[4] = test system: SF-539 CNS
[5] = test system: SK-MEL-28 melanoma
[6] = test system: SK-OV-3 ovarian
[7] = test system: SNB-75 CNS
[8] = test system: SW-620 colon
[9] = test system: UACC-257 melanoma
[10] = test system: UO-31 renal

SMILES	TGI [1]	TGI [2]	TGI [3]	TGI [4]	TGI [5]	TGI [6]	TGI [7]	TGI [8]	TGI [9]	TGI [10]	GI50 [1]	GI50 [2]	GI50 [3]	GI50 [4]	GI50 [6]	GI50 [8]	GI50 [9]	GI50 [5]	GI50 [7]	GI50 [10]
Cc1ccc(NCCN(C)C)c2c(=O)c3cc(O)ccc3sc12	27.6 µM	17.2 µM	10.4 µM	10.4 µM	12.5 µM	9.84 µM	9.24 µM	5.76 µM	20.7 µM	17.4 µM										
COc1cc(/C=C2/Oc3c(OC)cccc3C2=O)ccc1O	> 100 µM	> 100 µM	> 100 µM		> 100 µM	> 100 µM	> 100 µM	> 100 µM	> 100 µM	> 100 µM										
C/C(=N\NC(=S)N1CCOCC1)c1nc2ncccc2[nH]1	> 100 µM	> 100 µM	> 100 µM	51.4 µM	> 100 µM	> 100 µM	44.1 µM	> 100 µM	77.4 µM	96.2 µM										
CCOC(=O)c1csc(NC(=O)C(C)N2CCOCC2)n1 (stereo not drawn)	> 100 µM	> 100 µM	> 100 µM	> 100 µM	> 100 µM	> 100 µM	> 100 µM	> 100 µM	> 100 µM	> 100 µM										
CCN(CC)CCNc1ccc([N+](=O)[O-])c2sc3cc(Cl)ccc3c(=O)c12	> 100 µM	5.23 µM	> 100 µM	5.25 µM		96.5 µM		27.8 µM	4.96 µM		10.7 µM	2.05 µM	3.1 µM	2.05 µM	3.33 µM	2.33 µM	2.08 µM			
c1cncc([O][Ge]([O]c2cccnc2)([O]c2cccnc2)[O]c2cccnc2)c1	> 100 µM	> 100 µM	> 100 µM	> 100 µM	> 100 µM	> 100 µM	> 100 µM	> 100 µM	> 100 µM	> 100 µM	> 100 µM	> 100 µM	> 100 µM	> 100 µM	> 100 µM	> 100 µM	> 100 µM	> 100 µM	> 100 µM	> 100 µM
CC1(Cl)CC(C)(/C=C/Cl)C(Cl)CC1Cl (stereo not drawn)	26.4 µM	30.4 µM	31.2 µM	34.4 µM	29.4 µM	66.4 µM	41.4 µM	30.8 µM		29.8 µM										
Cc1ccc(NC(=O)C(=O)Cc2cccc[n+]2[O-])cc1C	> 100 µM	> 100 µM	> 100 µM	> 100 µM	> 100 µM	> 100 µM	> 100 µM	> 100 µM	> 100 µM	> 100 µM										
NC(Cc1ccccc1CP(=O)(O)O)C(=O)O (stereo not drawn)	> 100 µM	> 100 µM	> 100 µM	> 100 µM	> 100 µM	> 100 µM	> 100 µM	> 100 µM	> 100 µM	> 100 µM										
COC(=O)C(NC(=O)c1ccccc1)C(c1c(O)cc(O)cc1O)P(=O)(OC)OC (stereo not drawn)	> 100 µM	> 100 µM	> 100 µM	> 100 µM	> 100 µM	> 100 µM	> 100 µM	> 100 µM	> 100 µM	> 100 µM										
Cc1cc(Nc2ccc(Cl)cc2)nc(NCCCNc2ccnc3cc(Cl)ccc23)n1				3.13 µM	3.31 µM	3.01 µM	2.6 µM		3.39 µM	2.96 µM				1.65 µM	1.65 µM		1.8 µM	1.81 µM	1.33 µM	1.49 µM
CC(C)=CCC/C(C)=C/C=C/C(C)=C/C1C[C@@]2(C(O)O1)[C@H](CCCO)/C(=C(/C)C=O)CC[C@]2(C)O (stereo partly drawn)	25.1 µM	40.6 µM	32.2 µM	25 µM	32.3 µM		69.9 µM	27.8 µM	56.5 µM	33.9 µM										
C(=C\c1c2oc(-c3ccccc3)cc(-c3ccccc3)c-2c2ccccc12)/C=C1\c2ccccc2-c2c(-c3ccccc3)cc(-c3ccccc3)[o+]c21	> 100 µM	> 100 µM	> 100 µM	> 100 µM	> 100 µM	> 100 µM	> 100 µM	> 100 µM	> 100 µM	> 100 µM										
